{"source": "patent US5155103A", "about": "“Methods of using new thieno-triazole-1,4-diazepino-2-carboxylic acid amides” (Boehringer Ingelheim GmbH, priority 1985, dated 1992)", "system": "human thrombocytes (PAF-induced aggregation)", "experiment": "inhibition of PAF-induced aggregation of human thrombocytes in vitro", "format": "cell-based", "method": "In order to determine the PAF-antagonistic effect of substances the PAF-induced aggregation of human thrombocytes in vitro is used. To obtain thrombocyte-rich plasma (TRP), blood is taken from an uncongested vein using a plastic syringe containing 3.8% sodium citrate solution. The ratio of sodium citrate solution to blood is 1:9. After careful mixing, the citrated blood is centrifuged for 20 minutes (150×g, 1200 rpm). The thrombocyte aggregation is measured using the method developed by Born and Cross (G. V. R. Born and M. J. Cross, J. Physiol. 168, 178 (1963)), PAF being added to the TRP with constant stirring to initiate aggregation.\nThe test substance is added 2 to 3 minutes before the aggregation is induced in a volume of 10 μl. The solvent used is either distilled water, ethanol and/or dimethylsulfoxide. Control mixtures are given corresponding volumes of these solvents. After the initial absorption has been recorded (2 to 3 minutes) aggregation is induced with PAF (5×10^-8 M).\nTo assess the effects of substances, the maximum of the first aggregation wave is used. The maximum absorption rate induced by PAF (=maximum aggregation×100%) is tested simultaneously in a parallel mixture (=control mixture in one of the channels of the 2-channel aggregometer) with each test mixture (second channel) and used as the 100% value.\nThe aggregation value achieved under the influence of the test substance is given as 100%.\nEach test substance is investigated at concentrations of 10^-3 to 10^-8 M with a random test scope of n=4 for any inhibiting effect on the PAF-induced thrombocyte aggregation. Then a concentration-activity curve is drawn up using 3 concentrations and the IC50 is determined (concentration at 50% inhibition of aggregation).", "key": {"[1]": {"conditions": "Table B, PAF 5×10^-8 M, human thrombocyte-rich plasma, read-out: PAF-Antag. IC50"}, "[2]": {"conditions": "Homo sapiens, unit inferred, read-out: IC50"}}, "note": "Like-named read-outs stand apart in the source and are kept apart here."}
{"smiles": "Cc1nnc2n1-c1sc(Br)cc1C(c1ccccc1Cl)=NC2", "note": "[Brotizolam, reference compound]", "values": [{"measurement": "IC50", "setting": "[1]", "value": 500, "unit": "nM"}]}
{"smiles": "CCc1cc2c(s1)-n1c(C)nnc1CN=C2c1ccccc1Cl", "note": "[Etizolam, reference compound]", "values": [{"measurement": "IC50", "setting": "[1]", "value": 500, "unit": "nM"}]}
{"smiles": "Cc1nnc2n1-c1sc(CCC(=O)N3CCOCC3)cc1C(c1ccccc1Cl)=NC2", "note": "[Example 1, 2-[4-(2-Chlorophenyl)-9-methyl-6H-thieno[3,2-f][1,2,4]-triazolo[4,3-a][1,4]diazepin-2-yl]-ethane-1-carboxylic acid morpholide]", "values": [{"measurement": "IC50", "setting": "[2]", "value": 170, "unit": "nM"}, {"measurement": "IC50", "setting": "[1]", "value": 170, "unit": "nM"}]}
{"smiles": "O=C(CCc1cc2c(s1)-n1c(nnc1C1CC1)CN=C2c1ccccc1Cl)N1CCOCC1", "note": "[Example 2]", "values": [{"measurement": "IC50", "setting": "[1]", "value": 330, "unit": "nM"}]}
{"smiles": "Cc1nnc2n1-c1sc(C(=O)N3CCOCC3)cc1C(c1ccccc1Cl)=NC2", "note": "[Example 3, [4-(2-Chlorophenyl)-9-methyl-6H-thieno[3,2-f][1,2,4]triazolo-[4,3-a][1,4]diazepin-2-yl]-carboxylic acid morpholide]", "values": [{"measurement": "IC50", "setting": "[1]", "value": 710, "unit": "nM"}]}
{"smiles": "Cc1nnc2n1-c1sc(C(N)=O)cc1C(c1ccccc1Cl)=NC2", "note": "[Example 4, [4-(2-Chlorophenyl)-9-methyl-6H-thieno[3,2-f][1,2,4]triazolo-[4,3-a][1,4]diazepin-2-yl]-carboxylic acid amide]", "values": [{"measurement": "IC50", "setting": "[1]", "value": 8300, "unit": "nM"}]}
{"smiles": "CCN(CC)C(=O)CCc1cc2c(s1)-n1c(C)nnc1CN=C2c1ccccc1Cl", "note": "[Example 5, 2-[4-(2-Chlorophenyl)-9-methyl-6H-thieno[3,2-f][1,2,4]-triazolo[4,3-a][1,4]diazepin-2-yl]-ethane-1-carboxylic acid diethylamide]", "values": [{"measurement": "IC50", "setting": "[2]", "value": 700, "unit": "nM"}, {"measurement": "IC50", "setting": "[1]", "value": 720, "unit": "nM"}]}
{"smiles": "Cc1nnc2n1-c1sc(CC(=O)N3CCOCC3)cc1C(c1ccccc1Cl)=NC2", "note": "[Example 6, [4-(2-Chlorophenyl)-9-methyl-6H-thieno[3,2-f][1,2,4]triazolo-[4,3-a][1,4]-diazepin-2-yl]-methane carboxylic acid morpholide]", "values": [{"measurement": "IC50", "setting": "[1]", "value": 1300, "unit": "nM"}]}
{"smiles": "Cc1nnc2n1-c1sc(CCCC(=O)N3CCOCC3)cc1C(c1ccccc1Cl)=NC2", "note": "[Example 7, 3-[4-(2-Chlorophenyl)-9-methyl-6H-thieno[3,2-f][1,2,4]-triazolo-[4,3-a][1,4]-diazepin-2-yl]-propane-1-carboxylic acid morpholide]", "values": [{"measurement": "IC50", "setting": "[1]", "value": 850, "unit": "nM"}]}
{"smiles": "Cc1nnc2n1-c1sc(CCCCC(=O)N3CCOCC3)cc1C(c1ccccc1Cl)=NC2", "note": "[Example 8]", "values": [{"measurement": "IC50", "setting": "[1]", "value": 870, "unit": "nM"}]}
{"smiles": "O=C(CCc1cc2c(s1)-n1c(Br)nnc1CN=C2c1ccccc1Cl)N1CCOCC1", "note": "[Example 9]", "values": [{"measurement": "IC50", "setting": "[1]", "value": 470, "unit": "nM"}]}
{"smiles": "COc1nnc2n1-c1sc(CCC(=O)N3CCOCC3)cc1C(c1ccccc1Cl)=NC2", "note": "[Example 10, 2-[4(2-Chlorophenyl)-9-methoxy-6H-thieno[3,2-f][1,2,4]-triazolo-[4,3-a][1,4]-diazepin-2-yl]-ethane-1-carboxylic acid morpholide]", "values": [{"measurement": "IC50", "setting": "[1]", "value": 200, "unit": "nM"}]}
{"smiles": "CNC(=O)CCc1cc2c(s1)-n1c(C)nnc1CN=C2c1ccccc1Cl", "note": "[Example 12, 2-[4-(2-Chlorophenyl)-9-methyl-6H-thieno[3,2-f][1,2,4]-triazolo[4,3-a][1,4]diazepin-2-yl]-ethane-1-carboxylic acid methylamide]", "values": [{"measurement": "IC50", "setting": "[1]", "value": 350, "unit": "nM"}]}
{"smiles": "Cc1nnc2n1-c1sc(CCC(=O)NC(C)C)cc1C(c1ccccc1Cl)=NC2", "note": "[Example 13, 2-[4-(2-Chlorophenyl)-9-methyl-6H-thieno[3,2-f][1,2,4]-triazolo[4,3-a][1,4]diazepin-2-yl]-ethane-1-carboxylic acid isopropylamide]", "values": [{"measurement": "IC50", "setting": "[1]", "value": 1540, "unit": "nM"}]}
{"smiles": "Cc1nnc2n1-c1sc(CCC(=O)N(C)C)cc1C(c1ccccc1Cl)=NC2", "note": "[Example 14, 2-[4-(2-Chlorophenyl)-9-methyl-6H-thieno[3,2-f][1,2,4]-triazolo[4,3-a][1,4]diazepin-2-yl]-ethane-1-carboxylic acid dimethylamide]", "values": [{"measurement": "IC50", "setting": "[1]", "value": 2200, "unit": "nM"}]}
{"smiles": "Cc1nnc2n1-c1sc(CCC(=O)N3CCCC3)cc1C(c1ccccc1Cl)=NC2", "note": "[Example 15, 2-[4-(2-Chlorophenyl)-9-methyl-6H-thieno[3,2-f][1,2,4]-triazolo[4,3-a][1,4]diazepin-2-yl]-ethane-1-carboxylic acid pyrrolidide]", "values": [{"measurement": "IC50", "setting": "[1]", "value": 380, "unit": "nM"}]}
{"smiles": "Cc1nnc2n1-c1sc(CCC(=O)N3CCCCC3)cc1C(c1ccccc1Cl)=NC2", "note": "[Example 16, 2-[4-(2-Chlorophenyl)-9-methyl-6H-thieno[3,2-f][1,2,4]-triazolo[4,3-a][1,4]diazepin-2-yl]-ethane-1-carboxylic acid piperidide]", "values": [{"measurement": "IC50", "setting": "[1]", "value": 1330, "unit": "nM"}]}
{"smiles": "Cc1nnc2n1-c1sc(CCC(=O)N3CCN(C)CC3)cc1C(c1ccccc1Cl)=NC2", "note": "[Example 17, 2-[4-(2-Chlorophenyl)-9-methyl-6H-thieno[3,2-f][1,2,4]-triazolo[4,3-a][1,4]diazepin-2-yl]-ethane-1-carboxylic acid N'-methyl-piperazide]", "values": [{"measurement": "IC50", "setting": "[1]", "value": 900, "unit": "nM"}]}
{"smiles": "CCN(CC)C(=O)CCc1cc2c(s1)-n1c(nnc1C1CC1)CN=C2c1ccccc1Cl", "note": "[Example 18, 2-[4-(2-Chlorophenyl)-9-cyclopropyl-6H-thieno[3,2-f][1,2,4]triazolo[4,3-a][1,4]diazepin-2-yl]-ethane-1-carboxylic acid diethylamide]", "values": [{"measurement": "IC50", "setting": "[1]", "value": 800, "unit": "nM"}]}
{"smiles": "O=C(CCc1cc2c(s1)-n1cnnc1CN=C2c1ccccc1Cl)N1CCOCC1", "note": "[Example 19, 2-[4-(2-chlorophenyl)-6H-thieno[3,2-f][1,2,4]-triazolo[4,3-a][1,4]-diazepin-2-yl]-ethane-1-carboxylic acid morpholide]", "values": [{"measurement": "IC50", "setting": "[1]", "value": 8200, "unit": "nM"}]}
{"smiles": "Cc1nnc2n1-c1sc(CC(N)=O)cc1C(c1ccccc1Cl)=NC2", "note": "[Example 20]", "values": [{"measurement": "IC50", "setting": "[1]", "value": 5300, "unit": "nM"}]}
{"smiles": "Cc1nnc2n1-c1sc(CCC(=O)N(CCO)CCO)cc1C(c1ccccc1Cl)=NC2", "note": "[Example 21]", "values": [{"measurement": "IC50", "setting": "[1]", "value": 2900, "unit": "nM"}]}
{"smiles": "Cc1nnc2n1-c1sc(CCC(=O)N3CCOCC3)cc1C(c1ccccc1)=NC2", "note": "[Example 22, 2-[4-Phenyl-9-methyl-6H-thieno[3,2-f][1,2,4]triazolo-[4,3-a][1,4]diazepin-2-yl]-ethane-1-carboxylic acid morpholide]", "values": [{"measurement": "IC50", "setting": "[1]", "value": 540, "unit": "nM"}]}
{"smiles": "Cc1nnc2n1-c1sc(CCC(=O)NCCO)cc1C(c1ccccc1Cl)=NC2", "note": "[Example 23]", "values": [{"measurement": "IC50", "setting": "[1]", "value": 750, "unit": "nM"}]}
{"smiles": "O=C(CCc1cc2c(s1)-n1c(CCl)nnc1CN=C2c1ccccc1Cl)N1CCOCC1", "note": "[Example 24]", "values": [{"measurement": "IC50", "setting": "[1]", "value": 1400, "unit": "nM"}]}
{"smiles": "CCCOc1nnc2n1-c1sc(CCC(=O)N3CCOCC3)cc1C(c1ccccc1Cl)=NC2", "note": "[Example 26]", "values": [{"measurement": "IC50", "setting": "[1]", "value": 8100, "unit": "nM"}]}
{"smiles": "Cc1nnc2n1-c1ccc(Cl)cc1C(c1ccccc1Cl)=NC2", "note": "[Triazolam, reference compound]", "values": [{"measurement": "IC50", "setting": "[1]", "value": 1400, "unit": "nM"}]}
